PMC4666608, “Metabolic Profiling of Chicken Embryos Exposed to Perfluorooctanoic Acid (PFOA) and Agonists to Peroxisome Proliferator-Activated Receptors” (PLoS ONE, 2015)
Marks after values point to notes of the source that are not given here.

Tests used:
human PPARγ = test system: human PPARγ; design: method as in PMID 16038868; conditions: reporter cell assay; read-out: EC50, activation of transcription through human PPARγ; cited from earlier work
chicken embryos = test: Metabolic profiling of blood plasma (GC-MS, LC-MS, OPLS-DA); assay type: in vivo, Gallus gallus domesticus
Experimental: Controls were injected with 20 μL vehicle only (DMSO).
Plasma was collected and stored at -70°C.
Metabolites in allantoic fluid and blood plasma were analyzed using gas chromatography-mass spectrometry (GC-MS) and liquid chromatography-mass spectrometry (LC-MS) as described in S1 Methods. Prior to GC-MS and LC-MS analysis, allantoic fluid (100 μL) and blood plasma (50 μL) were extracted. To each sample, 900 μL (allantoic fluid) or 450 μL (blood plasma) of extraction buffer (90/10 v/v methanol:water) including all internal standards were added. Standards for GC-MS were proline, succinic acid, glutamic acid, salicylic acid, alpha-ketoglutarate, putrescine, myristic acid, hexadecanoic acid, cholesterol, and sucrose. Standards for LC-MS were Val-Tyr-Val, Leu-enkephalin, sulfadimethoxine and reserpine. Samples were homogenized by shaking in a bead mill at a frequency of 30 Hz for 3 minutes and proteins were precipitated at +4°C on ice. The samples were centrifuged at +4°C, 14000 rpm, for 10 min. Then, 200 μL supernatant was transferred to a GC microvial and 200 μL was transferred to an LC microvial, and solvents were evaporated. Samples from the four replicate experiments were analyzed using in chronological order and within each replicate experiment the run order of the individual samples was randomized.
Multivariate statistical analyses of metabolite profiles were performed using the software package SIMCA-P version 13.0 (Umetrics, Umeå, Sweden). Data was centered and scaled to variance 1 (UV scaling) prior to modelling. To reduce unintended systematic variation caused by sample processing and instrument drift, GC-MS and LC-MS metabolite amounts (expressed as the area under the chromatographic peak) were normalized by Orthogonal Partial Least Squares analysis (O2PLS) prior to multivariate data analysis. O2PLS finds common (predictive) and unique (orthogonal) variation in two data matrices. If applied to find the common variation between the data matrix containing the measured metabolite concentrations and a matrix containing only the internal standards, the only common (predictive) variation expected is due to the unintended systematic variation. By deleting the contribution of the predictive latent variables, that variation can be removed from the data. Models obtained after this normalization contain in general less latent variables, and this simplification helps when deciding on the number of latent variables to be used. Following normalization, GC-MS and LC-MS data were analyzed together. Initially, a global Principal Component Analysis (PCA) was performed to get an overview of groups and trends and to identify outliers. Projections to latent structures by means of Orthogonal Partial Least Squares Discriminant Analysis (OPLS-DA) was used to model the relationship between the X-matrix (metabolite concentrations) and the Y matrix (class, i.e. exposure group or sex), and to find x-variables that were related to class belonging. OPLS-DA is a supervised prediction and regression method that rotates the projection plane to find the maximum covariance between the data and the class assignment. All groups were first analyzed together in a 5-class OPLS-DA and then each exposure group was analyzed against the control group in a 2-class OPLS-DA. Sex differences were analyzed both using the whole data set and in each group separately using 2-class OPLS-DA, with females and males as the two classes. Only variables with 80% or more nonzero values were included in the statistical models. […] The validity of each model was also checked using CV-ANOVA (ANOVA of the cross-validated residuals). A significance level of p < 0.05 was used. For each model, R ^2 X, R ^2 Y and Q ^2 values were calculated, where R ^2 X is a measure of the fraction of x variation modeled in the extracted latent variables, R ^2 Y is a measure of the fraction of y variation modeled and Q ^2 is an estimate of the predictive ability of the model and is calculated by cross-validation. […]

Structure (SMILES): CN(CCOc1ccc(CC2SC(=O)NC2=O)cc1)c1ccccn1 (stereo not drawn) [Rosiglitazone, rosiglitazone, reference compound]
- EC50 (human PPARγ): 18 nM
- Mean concentration relative to control, feature Win006_C03 (chicken embryos; GC): 1.2*
- Mean concentration relative to control, feature Win011_C02 (Isoleucine) (chicken embryos; GC): 1.1
- Mean concentration relative to control, feature Win027_C13 (chicken embryos; GC): 0.9
- Mean concentration relative to control, feature Win031_C03 (Citric acid) (chicken embryos; GC): 1
- Mean concentration relative to control, feature Win034_C08 (Tyrosine) (chicken embryos; GC): 1
- Mean concentration relative to control, feature Win034_C09 (Tyrosine) (chicken embryos; GC): 1.1
- Mean concentration relative to control, feature Win039_C07 (chicken embryos; GC): 1.2
- Mean concentration relative to control, feature Win043_C02 (Cystathionine) (chicken embryos; GC): 1
- Mean concentration relative to control, feature Win061_C01 (chicken embryos; GC): 0.9
- Mean concentration relative to control, feature Win066_C03 (chicken embryos; GC): 1
- Mean concentration relative to control, feature Win088_C02 (chicken embryos; GC): 1
- Mean concentration relative to control, feature 118.0284@2.480333 (C4H6O4) (chicken embryos; LC): 0.8**
- Mean concentration relative to control, feature 122.0486@0.675613 (chicken embryos; LC): 1
- Mean concentration relative to control, feature 126.0428@1.2278157 (Thymine) (chicken embryos; LC): 1.0
- Mean concentration relative to control, feature 146.0362@0.7772238 (chicken embryos; LC): 1.1
- Mean concentration relative to control, feature 159.0686@1.1608156 (chicken embryos; LC): 1.1
- Mean concentration relative to control, feature 164.0449@0.7694838 (chicken embryos; LC): 1.1
- Mean concentration relative to control, feature 202.1024@5.0303197 (C8H14N2O4) (chicken embryos; LC): 1.1
- Mean concentration relative to control, feature 203.1162@0.5130696 (chicken embryos; LC): 1
- Mean concentration relative to control, feature 213.2458@7.4887733 (chicken embryos; LC): 1
- Mean concentration relative to control, feature 215.047@1.6260729 (C5H14NO6P) (chicken embryos; LC): 0.9*
- Mean concentration relative to control, feature 226.0721@1.9460537 (chicken embryos; LC): 1
- Mean concentration relative to control, feature 231.0174@1.6241412 (chicken embryos; LC): 0.8*
- Mean concentration relative to control, feature 233.1265@2.535991 (chicken embryos; LC): 1
- Mean concentration relative to control, feature 250.1317@2.1334834 (chicken embryos; LC): 1.2
- Mean concentration relative to control, feature 260.0508@0.69984084 (chicken embryos; LC): 0.8*
- Mean concentration relative to control, feature 276.0173@1.6283482 (chicken embryos; LC): 0.9
- Mean concentration relative to control, feature 278.0939@1.3354088 (chicken embryos; LC): 0.9
- Mean concentration relative to control, feature 293.0903@1.5739433 (chicken embryos; LC): 1
- Mean concentration relative to control, feature 307.2147@7.5065937 (C18H29NO3) (chicken embryos; LC): 0.9
- Mean concentration relative to control, feature 310.178@7.5343466 (chicken embryos; LC): 1
- Mean concentration relative to control, feature 339.3861@9.528681 (chicken embryos; LC): 1.2
- Mean concentration relative to control, feature 342.2883@7.526812 (chicken embryos; LC): 1
- Mean concentration relative to control, feature 348.0675@1.5761927 (chicken embryos; LC): 1
- Mean concentration relative to control, feature 355.9454@0.68034226 (chicken embryos; LC): 1
- Mean concentration relative to control, feature 362.1467@0.8461036 (chicken embryos; LC): 1.1
- Mean concentration relative to control, feature 366.1431@1.4228548 (chicken embryos; LC): 0.9*
- Mean concentration relative to control, feature 373.296@9.044806 (chicken embryos; LC): 1
- Mean concentration relative to control, feature 375.3108@8.995564 (chicken embryos; LC): 1
- Mean concentration relative to control, feature 389.2686@9.046645 (chicken embryos; LC): 1
- Mean concentration relative to control, feature 407.0999@1.585909 (chicken embryos; LC): 0.9*
- Mean concentration relative to control, feature 412.135@2.4779084 (C17H24N4O6S) (chicken embryos; LC): 0.8**
- Mean concentration relative to control, feature 444.3607@10.33052 (chicken embryos; LC): 0.9
- Mean concentration relative to control, feature 471.9819@0.685074 (chicken embryos; LC): 1
- Mean concentration relative to control, feature 489.1508@8.562614 (chicken embryos; LC): 0.7*
- Mean concentration relative to control, feature 509.1184@2.4798179 (chicken embryos; LC): 0.8**
- Mean concentration relative to control, feature 525.2855@8.361063 (chicken embryos; LC): 0.9
- Mean concentration relative to control, feature 545.2492@8.463657 (chicken embryos; LC): 0.9
- Mean concentration relative to control, feature 558.4095@9.459733 (chicken embryos; LC): 1.2*
- Mean concentration relative to control, feature 565.1902@0.7699907 (chicken embryos; LC): 1.1
- Mean concentration relative to control, feature 577.2747@9.25652 (chicken embryos; LC): 1.1
- Mean concentration relative to control, feature 581.1643@0.77029324 (chicken embryos; LC): 1.1
- Mean concentration relative to control, feature 634.2403@1.9467853 (chicken embryos; LC): 1
- Mean concentration relative to control, feature 644.1614@0.7647065 (chicken embryos; LC): 1.1
- Mean concentration relative to control, feature 659.5483@11.4915495 (chicken embryos; LC): 1.0
- Mean concentration relative to control, feature 698.2598@1.3599721 (chicken embryos; LC): 1.2*
- Mean concentration relative to control, feature 700.5514@10.765638 (chicken embryos; LC): 1.1
- Mean concentration relative to control, feature 755.5465@10.73882 (chicken embryos; LC): 1.4*
- Mean concentration relative to control, feature 827.5078@8.831237 (chicken embryos; LC): 1
- Mean concentration relative to control, feature 875.4661@10.5661745 (chicken embryos; LC): 1.0
- Mean concentration relative to control, feature 1262.4865@1.947075 (chicken embryos; LC): 1
- Mean concentration relative to control, feature 1316.4163@1.9465046 (chicken embryos; LC): 1.1*
- Mean concentration relative to control, feature 1591.051@5.0189176 (chicken embryos; LC): 0.8**
- Mean concentration relative to control, feature 1591.388@5.0202384 (chicken embryos; LC): 0.9*
- Mean concentration relative to control, feature 1591.7203@5.018071 (chicken embryos; LC): 0.9*
